Patent publication US20130004588A1, “DIVALENT CATION CONTAINING COMPOSITIONS AND METHODS FOR TREATING AND/OR PREVENTING ENZYMATIC IRRITATION” (priority 2011, published 2013)

Experiments:
trypsin [1] = experiment: Inhibition of trypsin-induced cleavage of fluorescent casein, EnzChek protease assay (cations and salt forms, Examples 1 and 2); type: biochemical
Procedure: The inhibition of trypsin-induced cleavage of a fluorescent casein peptide was measured using the EnzChek™ protease assay kit, following manufacturer's instructions (EnzChek™ Protease Assay Kits Product Information, Revised; Molecular Probes, Eugene Oreg.). Briefly, test materials at different concentrations were prepared in 1×phosphate buffered saline (PBS, pH 7.4). Trypsin working solution (Sigma, St. Louis, Mo., unit/mL) was prepared in digestion buffer provided in the assay kit. Stock solution of BODIPY FL casein (trypsin substrate, mg/mL) was prepared by adding 0.2 mL to the substrate vials (provided in kit), and the final substrate working solution (10 microgram/mL) was prepared by dilution in digestion buffer (pH 7.8). […] Each experiment was performed in three replicates.

trypsin [2] = molecular target: T1, trypsin (Bos taurus, UniProt P00760); details: low concentrations, around 0.001 M; cited from earlier work
T1 sequence (P00760 24-246): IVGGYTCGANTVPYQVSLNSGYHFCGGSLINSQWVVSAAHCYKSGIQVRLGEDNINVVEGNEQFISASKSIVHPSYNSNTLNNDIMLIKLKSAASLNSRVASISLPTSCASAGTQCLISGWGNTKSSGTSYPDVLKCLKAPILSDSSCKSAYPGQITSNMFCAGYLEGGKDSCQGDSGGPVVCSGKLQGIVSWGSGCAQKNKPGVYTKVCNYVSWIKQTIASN

trypsin [3] = experiment: EnzChek trypsin inhibition assay, mixtures of talc with divalent cation salts (Example 3); type: biochemical; details: for With Talc trypsin inhibition activities (%): all tested materials at 0.1% (g/mL); for Hypothetically calculated additive value of salt and Talc: Table 4
Procedure: The objective of the following experiment was to determine whether and to what extent adding a divalent cation to talc inhibited trypsin activity in an in vitro assay. The inhibition of trypsin-induced cleavage of a fluorescent casein peptide was measured using the EnzChek™ protease assay kit, following manufacturer's instructions (EnzChek™ Protease Assay Kits Product Information, Revised; Molecular Probes, Eugene Oreg.). […] Trypsin working solution (Sigma, St. Louis, Mo., unit/mL) was prepared in digestion buffer provided in the assay kit. Stock solution of BODIPY FL casein (trypsin substrate, mg/mL) was prepared by adding 0.2 mL to the substrate vials (provided in kit), and the final substrate working solution (10 microgram/mL) was prepared by dilution in digestion buffer (pH 7.8). Following incubation of the trypsin, with or without the test materials, with the BODIPY fluorescent casein substrate, at room temperature for one hour, fluorescence was measured (excitation 485 nm /emission 530 nm) using a SpectraMax microtiter plate reader (Molecular Devices Corporation, Sunnyvale, Calif.) and Softmax Pro software (Molecular Devices Corporation). Each experiment was performed in three replicates.

trypsin [4] = experiment: EnzChek trypsin inhibition assay, zinc oxide/acid mixtures and zinc oxide containing formulations (Example 4); type: biochemical; details: for % trypsin inhibitory activity: Table 5
Procedure: The objective of the following experiment was to determine whether and to what extent adding an acid to a formulation containing zinc oxide had on inhibition of trypsin activity in an in vitro assay. The inhibition of trypsin-induced cleavage of a fluorescent casein peptide was measured using the EnzChek™ protease assay kit, following manufacturer's instructions (EnzChek™ Protease Assay Kits Product Information, Revised; Molecular Probes, Eugene Oreg.). Briefly, mixtures of zinc oxide and acid at different concentrations were prepared in 1×PBS (pH 7.4) and their pH was recorded as listed in the Tables 5-8. Trypsin working solution (Sigma, St. Louis, Mo., unit/mL) was prepared in digestion buffer provided in the assay kit. Stock solution of BODIPY FL casein (trypsin substrate, mg/mL) was prepared by adding 0.2 mL to the substrate vials (provided in kit), and the final substrate working solution (10 microgram/mL) was prepared by dilution in digestion buffer (pH 7.8). Following incubation of the trypsin, with or without the test materials (50 μl), with the BODIPY fluorescent casein substrate, at room temperature for one hour, fluorescence was measured (excitation 485 nm/emission 530 nm) using a SpectraMax microtiter plate reader (Molecular Devices Corporation, Sunnyvale, Calif.) and Softmax Pro software (Molecular Devices Corporation). Each experiment was performed in three replicates.
For preparations, samples were diluted in 1×PBS at 1:10 ratio and subjected to centrifugation at 13,200 rpm for 1 min using Eppendorf Centrifuge (Model 5415D, Eppendorf AG, Hamburg, Germany) to remove the solid formulation ingredients. The supernatants (50 μl) were used for trypsin inhibitory activity analyses as described above. For preparations, samples were diluted in 10, or 20 or 40% ethanol and subjected to centrifugation at 13,200 rpm for 1 min using Eppendorf Centrifuge (Model 5415D, Eppendorf AG, Hamburg, Germany) to remove the solid formulation ingredients. The supernatants (50 μl) were used for trypsin inhibition assay. Possible effects of ethanol solution (10, 20 or 40% ethanol) on trypsin inhibition activity were tested in the same study and found no significant impact.

O.O.[Cl][Cu][Cl] [(II) chloride dihydrate]
% trypsin inhibitory activity (trypsin [1]; Table 1, 0.01% (g/mL)): 64.98%
% trypsin inhibitory activity (trypsin [1]; Table 1, 0.10% (g/mL)): 99.34%
% trypsin inhibitory activity (trypsin [1]; Table 1, 1% (g/mL)): 108.34%

[Ag+] [Ag+]
inhibition of the esterase activity of trypsin (trypsin [2]): inhibited

CC(=O)[O-].CC(=O)[O-].O.[Ca+2] [Calcium acetate monohydrate]
% synergistic activity relative to hypothetic additive value (trypsin [3]; Table 3, 0.1% (g/mL)): 3.10%
With Talc trypsin inhibition activities (%) (trypsin [3]; Table 3): 24.6%

[Ca+2].[Cl-].[Cl-] [Calcium chloride]
% synergistic activity relative to hypothetic additive value (trypsin [3]; Table 3, 0.1% (g/mL)): −0.26%
With Talc trypsin inhibition activities (%) (trypsin [3]; Table 3): 26.43%

[Cu+2] [Cu++]
inhibition of the esterase activity of trypsin (trypsin [2]): inhibited

[Hg+2] [Hg++]
inhibition of the esterase activity of trypsin (trypsin [2]): inhibited

O.O.O.O.[Cl][Fe][Cl] [Iron (II) chloride tetrahydrate]
% trypsin inhibitory activity (trypsin [1]; Table 1, 0.01% (g/mL)): −3.24%
% trypsin inhibitory activity (trypsin [1]; Table 1, 0.10% (g/mL)): 64.84%
% trypsin inhibitory activity (trypsin [1]; Table 1, 1% (g/mL)): 112.23%
% synergistic activity relative to hypothetic additive value (trypsin [3]; Table 3, 0.1% (g/mL)): −12.35%
With Talc trypsin inhibition activities (%) (trypsin [3]; Table 3): 64.53%

[Cl-].[Li+] [Lithium chloride, reference compound]
% trypsin inhibitory activity (trypsin [1]; Table 1, 0.01% (g/mL)): 8.71%
% trypsin inhibitory activity (trypsin [1]; Table 1, 0.10% (g/mL)): 7.56%
% trypsin inhibitory activity (trypsin [1]; Table 1, 1% (g/mL)): −0.56%

CC(=O)[O-].CC(=O)[O-].O.O.O.O.[Mg+2] [Magnesium acetate tetrahydrate]
% trypsin inhibitory activity (trypsin [1]; Table 2, 0.10% weight (g/mL)): −3.09%
Salt alone trypsin inhibition activities (%) (trypsin [3]; Table 3, 0.1% (g/mL)): 0.83%
With Talc trypsin inhibition activities (%) (trypsin [3]; Table 3): 17.83%

[Cl-].[Cl-].[Mg+2] [Magnesium chloride]
With Talc trypsin inhibition activities (%) (trypsin [3]; Table 3): 20.05%
Hypothetically calculated additive value of salt and Talc (trypsin [3]; 0.1% MgCl2, 1% Talc): 12.44%
Hypothetically calculated additive value of salt and Talc (trypsin [3]; 0.5% MgCl2, 1% Talc): 22.93%
Hypothetically calculated additive value of salt and Talc (trypsin [3]; 1% MgCl2, 1% Talc): 25.55%
trypsin inhibitory activity (in words) (trypsin [3]; talc and magnesium chloride alone or combined): moderate to low levels

O=[N+]([O-])[O-].[Ag+] [Silver nitrate, reference compound]
% trypsin inhibitory activity (trypsin [1]; Table 1, 0.01% (g/mL)): −2.43%
% trypsin inhibitory activity (trypsin [1]; Table 1, 0.10% (g/mL)): 2.91%
% trypsin inhibitory activity (trypsin [1]; Table 1, 1% (g/mL)): 5.37%

[Cl-].[Na+] [Sodium chloride, reference compound]
% trypsin inhibitory activity (trypsin [1]; Table 1, 0.01% (g/mL)): −7.57%
% trypsin inhibitory activity (trypsin [1]; Table 1, 0.10% (g/mL)): −4.15%
% trypsin inhibitory activity (trypsin [1]; Table 1, 1% (g/mL)): 10.88%

[Cl-].[Cl-].[Sr+2] [Strontium chloride]
% trypsin inhibitory activity (trypsin [1]; Table 1, 0.01% (g/mL)): 6.51%
% trypsin inhibitory activity (trypsin [1]; Table 1, 0.10% (g/mL)): 11.78%
% trypsin inhibitory activity (trypsin [1]; Table 1, 1% (g/mL)): 47.05%

CC(=O)[O-].CC(=O)[O-].[Zn+2] [Zinc acetate dihydrate]
% synergistic activity relative to hypothetic additive value (trypsin [3]; Table 3, 0.1% (g/mL)): −15.70%
With Talc trypsin inhibition activities (%) (trypsin [3]; Table 3): 60.18%

[Cl-].[Cl-].[Zn+2] [Zinc chloride]
% trypsin inhibitory activity (trypsin [1]; Table 1, 0.01% (g/mL)): 42.99%
% trypsin inhibitory activity (trypsin [1]; Table 1, 0.10% (g/mL)): 88.51%
% trypsin inhibitory activity (trypsin [1]; Table 1, 1% (g/mL)): 105.87%
% trypsin inhibitory activity (trypsin [1]; Table 2, 0.01% weight (g/mL)): 41.25%
% trypsin inhibitory activity (trypsin [1]; Table 2, 0.10% weight (g/mL)): 87.69%
% trypsin inhibitory activity (trypsin [1]; Table 2, 1% weight (g/mL)): 98.75%
% synergistic activity relative to hypothetic additive value (trypsin [3]; Table 3, 0.1% (g/mL)): −13.01%
With Talc trypsin inhibition activities (%) (trypsin [3]; Table 3): 77.96%

CC(O)C(=O)[O-].CC(O)C(=O)[O-].[Zn+2] (stereo not drawn) [Zinc lactate]
% trypsin inhibitory activity (trypsin [1]; Table 2, 0.01% weight (g/mL)): 23.01%
% trypsin inhibitory activity (trypsin [1]; Table 2, 0.10% weight (g/mL)): 36.36%
% trypsin inhibitory activity (trypsin [1]; Table 2, 1% weight (g/mL)): 87.95%

[O]=[Zn] [ZnO, zinc oxide]
% trypsin inhibitory activity (trypsin [4]; 0.1% ZnO with 0.01% acetic acid, pH 7.28): 1.85 +/− 1.34%
% trypsin inhibitory activity (trypsin [4]; 0.1% ZnO with 0.05% acetic acid, pH 6.03): 49.16 +/− 1.43%
% trypsin inhibitory activity (trypsin [4]; 0.1% ZnO, no acetic acid, pH 7.61): −2.6 +/− 2.76%
% trypsin inhibitory activity (trypsin [4]; 1% ZnO with 0.01% acetic acid, pH 7.85): 15.82 +/− 1.68%
% trypsin inhibitory activity (trypsin [4]; 1% ZnO with 0.05% acetic acid, pH 6.08): 58.19 +/− 0.73%
% trypsin inhibitory activity (trypsin [4]; 1% ZnO, no acetic acid, pH 8.07): 5.40 +/− 1.24%
trypsin inhibitory activity (in words) (trypsin [4]; conclusion from Tables 5-8): minimal protease activity

CC(=O)O [acetic acid]
% trypsin inhibitory activity (trypsin [4]; no ZnO, 0.01% acetic acid, pH 6.84): −11.18 +/− 2.61%
% trypsin inhibitory activity (trypsin [4]; no ZnO, 0.05% acetic acid, pH 4.75): 25.81 +/− 2.13%

Zinc gluconate
% trypsin inhibitory activity (trypsin [1]; Table 2, 0.01% weight (g/mL)): 25.33%
% trypsin inhibitory activity (trypsin [1]; Table 2, 0.10% weight (g/mL)): 40.93%
% trypsin inhibitory activity (trypsin [1]; Table 2, 1% weight (g/mL)): 85.52%
